Results published in patent US5830869A, “Thiadiazole amide MMP inhibitors” (priority 1997, dated 1998).

Target: Stromelysin (Homo sapiens, UniProt P08254)
Test: Stromelysin inhibition, in vitro particle concentration fluorescence assay (TABLE 1, MMP Inhibition Constants)
Type: biochemical
Details: fluorescein/biotin substrate, MMP buffer pH 7.5, room temperature, 15 min preincubation with enzyme, 1-3 h with substrate
Description: Inhibitory activity is evaluated in one or more of the MMP enzymes (stromelysin, gelatinase, and collagenase) in vitro using particle concentration fluorescence assay. An inhibitor binds to MMP enzymes which prevents the degradation of a substrate by stromelysin, gelatinase, or collagenase. The substrate has attached to it a fluorescein and a biotin moiety. The intact substrate then binds to an avidin-coated particle via the biotin moiety. Once the particle is washed and dried, a fluorescent signal is generated since the fluorescent group is attached to the particle. Without an inhibitor present, the substrate is degraded by MMP enzymes and the fluorescein group is removed, therefore, no fluorescent signal can be detected. Testing compounds are dissolved in DMSO to the desired concentration, then the solutions are diluted to 1:5 with MMP buffer (50 mM Tris-HCl, pH 7.5; 150 mM NaCl; 0.02% NaN3). Serial two-fold dilutions of each compound are prepared. A concentrated, activated enzyme solution is transferred into each plate of the testing compounds, and the mixture is incubated at room temperature for 15 minutes. Thawed MMP substrate is then added into all plates, and the plates are incubated in the dark for 1-3 hours at room temperature. At this point, the substrate mixture is mixed with 0.1% avidin-coated polystyrene particles. After 15 minutes, the fluorescence values are measured following filtration and washing of the beads. Ki values are then calculated.

Sequence of Stromelysin (P08254 100-477): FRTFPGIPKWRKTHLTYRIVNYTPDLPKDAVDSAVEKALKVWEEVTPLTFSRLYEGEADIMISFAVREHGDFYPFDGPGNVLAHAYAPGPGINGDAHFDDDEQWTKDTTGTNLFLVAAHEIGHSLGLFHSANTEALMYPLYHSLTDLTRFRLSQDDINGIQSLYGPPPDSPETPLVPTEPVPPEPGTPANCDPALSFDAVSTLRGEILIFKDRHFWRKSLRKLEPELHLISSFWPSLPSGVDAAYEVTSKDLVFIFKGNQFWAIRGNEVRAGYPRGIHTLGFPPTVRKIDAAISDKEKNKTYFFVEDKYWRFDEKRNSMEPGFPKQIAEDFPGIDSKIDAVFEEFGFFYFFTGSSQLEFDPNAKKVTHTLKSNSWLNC

Row | Ki [µM] | Structure (SMILES)
1 | 1.91 | C=CC[C@H](C(=O)Nc1n[nH]c(=S)s1)[C@@H](CC(C)C)NC(=O)OCc1ccccc1 (relative stereo) [Example 55, (R*,S*)-[2-[[(4,5-dihydro-5-thioxo-1,3,4-thiadiazol-2-yl)amino]carbonyl]-1-(2-methylpropyl)-4-pentenyl]carbamic acid phenylmethyl ester]
2 | 1.7 | CC(C)C[C@@H](NC(=O)OCc1ccccc1)[C@H](Cc1ccccc1)C(=O)Nc1n[nH]c(=S)s1 (relative stereo) [Example 56, (R*,S*)-[1-[2-[(4,5-dihydro-5-thioxo-1,3,4-thiadiazol-2-yl)amino]-oxo-1(phenylmethyl)ethyl]-3-methylbutyl]carbamic acid phenylmethyl ester]
3 | 1.21 | O=C(NC(C(=O)Nc1n[nH]c(=S)s1)c1ccccc1)OCc1ccccc1 (stereo not drawn) [Example 1, [2-[(4,5-dihydro-5-thioxo-1,3,4-thiadiazol-2-yl)amino]-2-oxo-1-phenylethyl]carbamic acid, phenylmethyl ester]
4 | 13.9 | O=C(N[C@@H](CCc1ccccc1)C(=O)Nc1n[nH]c(=S)s1)OCc1ccccc1 [Example 2, (S)-[1-[[(4,5-dihydro-5-thioxo-1,3,4-thiadiazol-2-yl)amino]carbonyl]-3-phenylpropyl]carbamic acid phenylmethyl ester]
5 | 1.24 | CC[C@H](C)[C@H](NC(=O)OCc1ccccc1)C(=O)Nc1n[nH]c(=S)s1 [Example 3, [S-(R*,R*)]-[1-[[(4,5-dihydro-5-thioxo-1,3,4-thiadiazol-2-yl)amino]carbonyl]-2-methylbutyl[carbamic acid phenylmethyl ester]
6 | 0.95 | CC[C@H](C)[C@H](NC(=O)OCC1c2ccccc2-c2ccccc21)C(=O)Nc1n[nH]c(=S)s1 [Example 4, [S-(R*,R*)]-[1-[[(4,5-dihydro-5-thioxo-1,3,4-thiadiazol-2-yl)amino]carbonyl]-2-methylbutyl]carbamic acid 9H-fluoren-9-yl-methyl ester]
7 | 2.42 | CCCCC(NC(=O)OCc1ccccc1)C(=O)Nc1n[nH]c(=S)s1 (stereo not drawn) [Example 5, [1-[[(4,5-dihydro-5-thioxo-1,3,4-thiadiazol-2-yl)amino]carbonyl]pentyl]carbamic acid phenylmethyl ester]
8 | 0.53 | CC(C)(C)[C@H](NC(=O)OCc1ccccc1)C(=O)Nc1n[nH]c(=S)s1 [Example 6, (S)-[1-[[(4,5-dihydro-5-thioxo-1,3,4-thiadiazol-2-yl)amino]carbonyl]-2,2-dimethylpropyl]carbamic acid phenylmethyl ester]
9 | 2.31 | CCC[C@H](NC(=O)OCc1ccccc1)C(=O)Nc1n[nH]c(=S)s1 [Example 7, (S)-[1-[[(4,5-dihydro-5-thioxo-1,3,4-thiadiazol-2-yl)amino]carbonyl]butyl]carbamic acid phenylmethyl ester]
10 | 8.06 | O=C(NC(COCc1ccccc1)C(=O)Nc1n[nH]c(=S)s1)OCc1ccccc1 (stereo not drawn) [Example 8, [2-[(4,5-dihydro-5-thioxo-1,3,4-thiadiazol-2-yl)amino]-2-oxo-1-[(phenylmethoxy)methyl]ethyl]carbamic acid phenylmethyl ester]
11 | 9.45 | O=C(NC(CSCc1ccccc1)C(=O)Nc1n[nH]c(=S)s1)OCc1ccccc1 (stereo not drawn) [Example 9, [2-[(4,5-dihydro-5-thioxo-1,3,4-thiadiazol-2-yl)amino]-2-oxo-1-[[(phenylmethyl)thio]methyl]ethyl]carbamic acid phenylmethyl ester]
12 | 1.8 | CC(=O)NC(C(=O)Nc1n[nH]c(=S)s1)c1ccccc1 (stereo not drawn) [Example 13, α-(acetylamino)-N-(4,5-dihydro-5-thioxo-1,3,4-thiadiazol-2-yl)-benzeneacetamide]
13 | 0.64 | O=C(CCc1ccccc1)NC(C(=O)Nc1n[nH]c(=S)s1)c1ccccc1 (stereo not drawn) [Example 14, N-[2-[(4,5-dihydro-5-thioxo-1,3,4-thiadiazol-2-yl)amino]-2-oxo-1-phenylethyl]benzenepropanamide]
14 | 1.38 | O=C(CCCCc1ccccc1)NC(C(=O)Nc1n[nH]c(=S)s1)c1ccccc1 (stereo not drawn) [Example 15, N-[2-[(4,5-dihydro-5-thioxo-1,3,4-thiadiazol-2-yl)amino]-2-oxo-1-phenylethyl]benzenepentanamide]
15 | 0.38 | O=C(COCc1ccccc1)NC(C(=O)Nc1n[nH]c(=S)s1)c1ccccc1 (stereo not drawn) [Example 16, N-(4,5-dihydro-5-thioxo-1,3,4-thiadiazol-2-yl)-α-[[(phenylmethoxy)acetyl]amino]benzeneacetamide]
16 | 1.77 | CC(=O)NCSC(C)(C)C(NC(=O)OCc1ccccc1)C(=O)Nc1n[nH]c(=S)s1 (stereo not drawn) [Example 17, (2-(((acetylamino)methyl)thio)-1-(((4,5-dihydro-5--thioxo-1,3,4-thiadiazol-2-yl)amino)carbonyl)-2-methylpropyl)carbamic acid phenylmethyl ester]
17 | 1.98 | CC(C)(C)OC(=O)NC(C(=O)Nc1n[nH]c(=S)s1)c1ccccc1 (stereo not drawn) [Example 24, [2-[(4,5-dihydro-5-thioxo-1,3,4-thiadiazol-2-yl)amino]-2-oxo-1-phenylethyl]carbamic acid 1,1-dimethylethyl ester]
18 | 2.48 | CC(C)(C)OC(=O)N[C@@H](Cc1ccc(NC(=O)OCc2ccccc2)cc1)C(=O)Nc1n[nH]c(=S)s1 [Example 25, (S)-[4-[3-[(4,5-dihydro-5-thioxo-1,3,4-thiadiazol-2-yl)amino]-2-[[(1,1-dimethylethoxy)carbonyl]amino]-3-oxopropyl]phenyl]carbamic acid phenylmethyl ester]

Second part, the compound before the results:

Row | Structure (SMILES) | Ki [µM]
19 | O=C(Nc1n[nH]c(=S)s1)[C@@H]1CC[C@H](C(=O)N(Cc2ccccc2)OCc2ccccc2)C1 (relative stereo) [Example 60, cis-N'-(4,5-dihydro-5-thioxo-1,3,4-thiadiazol-2-yl)-N-(phenylmethoxy)-N-(phenylmethyl)-1,3-cyclopentane dicarboxamide] | 10.3
20 | CCCCCCCC(NC(=O)OCc1ccccc1)C(=O)Nc1n[nH]c(=S)s1 (stereo not drawn) [Example 10, [1-[[(4,5-dihydro-5-thioxo-1,3,4-thiadiazol-2-yl)amino]carbonyl]octyl]carbamic acid phenylmethyl ester] | 6.32
21 | O=C(N[C@@H](CC1CCCCC1)C(=O)Nc1n[nH]c(=S)s1)OCc1ccccc1 [Example 11] | 6.1
22 | O=C(N[C@H](C(=O)Nc1n[nH]c(=S)s1)C1CCCCC1)OCc1ccccc1 [Example 12, (S)-[1-(cyclohexyl)-2-[(4,5-dihydro-5-thioxo-1,3,4-thiadiazol-2-yl)amino]-2-oxoethyl]carbamic acid phenylmethyl ester] | 0.84
23 | CC(C)(C)OC(=O)NC(C(=O)Nc1n[nH]c(=S)s1)C(C)(C)/C=C\c1ccccc1 (stereo not drawn) [Example 18, (Z)-(1-(((4,5-dihydro-5-thioxo-1,3,4-thiadiazol-2-yl)amino)carbonyl)-2,2-dimethyl-4-phenyl-3-butenyl)carbamic acid 1,1-dimethylethyl ester] | 1.8
24 | CC(C)(C)OC(=O)NC(C(=O)Nc1n[nH]c(=S)s1)C(C)(C)CCc1ccccc1 (stereo not drawn) [Example 19, (1-(((4,5-dihydro-5-thioxo-1,3,4-thiadiazol-2-yl)amino)carbonyl)-2,2-dimethyl-4-phenylbutyl)carbamic acid 1,1-dimethylethyl ester] | 6.2
25 | CC(C)(C)OC(=O)NC(C(=O)Nc1n[nH]c(=S)s1)C(C)(C)/C=C/Cc1ccccc1 (stereo not drawn) [Example 20, (E)-(1-(((4,5-dihydro-5-thioxo-1,3,4-thiadiazol-2-yl)amino)carbonyl)-2,2-dimethyl-5-phenyl-3-pentenyl)carbamic acid 1,1-dimethylethyl ester] | 3.06
26 | CC(C)(C)OC(=O)NC(C(=O)Nc1n[nH]c(=S)s1)C(C)(C)CCCc1ccccc1 (stereo not drawn) [Example 21, (1-(((4,5-dihydro-5-thioxo-1,3,4-thiadiazol-2-yl)amino)carbonyl)-2,2-dimethyl-5-phenylpentyl)carbamic acid 1,1-dimethylethyl ester] | 2.72
27 | C=CC(C)(C)C(NC(=O)OC(C)(C)C)C(=O)Nc1n[nH]c(=S)s1 (stereo not drawn) [Example 22, (1-(((4,5-dihydro-5-thioxo-1,3,4-thiadiazol-2-yl)amino)carbonyl)-2,2-dimethyl-3-butenyl)carbamic acid 1,1-dimethylethyl ester] | 3.51
28 | CCC(C)(C)C(NC(=O)OC(C)(C)C)C(=O)Nc1n[nH]c(=S)s1 (stereo not drawn) [Example 23, (1-(((4,5-dihydro-5-thioxo-1,3,4-thiadiazol-2-yl)amino)carbonyl)-2,2-dimethylbutyl)carbamic acid 1,1-dimethylethyl ester] | 2.14
29 | CC(C)(C)[C@H](NC(=O)CCc1ccccc1)C(=O)Nc1n[nH]c(=S)s1 [Example 26, (S)-N-[1-[[(4,5-dihydro-5-thioxo-1,3,4-thiadiazol-2-yl)amino]carbonyl]-2,2-dimethylpropyl]benzenpropanamide] | 0.24
30 | CC(C)(C)[C@H](NC(=O)CCc1c(F)c(F)c(F)c(F)c1F)C(=O)Nc1n[nH]c(=S)s1 [Example 27, (S)-N-[1-[[(4,5-dihydro-5-thioxo-1,3,4-thiadiazol-2-yl)amino]carbonyl]-2,2-dimethylpropyl]-2,3,4,5,6-pentafluorobenzenepropanamide] | 0.91
